According to ChEMBL document CHEMBL1909046, “DrugMatrix in vitro pharmacology data”:

Legend:
[1] = molecular target: T1, Alpha-1D adrenergic receptor (Homo sapiens, UniProt P25100); assay type: cell membranes, HEK293, Membrane; conditions: hek293; further: in other assays of this panel Not Active means under 50% inhibition at 10 µM
T1 sequence (P25100 whole entry): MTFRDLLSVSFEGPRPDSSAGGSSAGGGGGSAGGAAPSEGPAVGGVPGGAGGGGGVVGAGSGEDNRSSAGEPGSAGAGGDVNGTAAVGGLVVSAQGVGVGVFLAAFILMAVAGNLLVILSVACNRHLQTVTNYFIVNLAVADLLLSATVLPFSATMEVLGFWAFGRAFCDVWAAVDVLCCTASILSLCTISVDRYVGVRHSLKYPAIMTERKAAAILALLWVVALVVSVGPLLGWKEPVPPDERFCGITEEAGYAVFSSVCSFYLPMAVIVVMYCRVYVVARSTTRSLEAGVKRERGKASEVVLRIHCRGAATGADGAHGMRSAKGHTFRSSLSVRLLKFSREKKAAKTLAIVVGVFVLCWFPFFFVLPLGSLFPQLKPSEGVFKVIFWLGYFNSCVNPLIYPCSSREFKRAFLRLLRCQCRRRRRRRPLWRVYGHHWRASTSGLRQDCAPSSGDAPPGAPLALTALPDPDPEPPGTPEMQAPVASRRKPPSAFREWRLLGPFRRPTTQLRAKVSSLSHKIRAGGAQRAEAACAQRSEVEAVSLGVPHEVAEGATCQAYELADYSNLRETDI

[2] = molecular target: T2, 5-hydroxytryptamine receptor 2C (Homo sapiens, UniProt P28335); experiment: DRUGMATRIX: Serotonin (5-Hydroxytryptamine) 5-HT2C radioligand binding (ligand: [3H] Mesulergine); assay type: cell membranes, CHO-K1, Membrane; conditions: Not Active = under 50% inhibition at 10 µM
T2 sequence (P28335 whole entry): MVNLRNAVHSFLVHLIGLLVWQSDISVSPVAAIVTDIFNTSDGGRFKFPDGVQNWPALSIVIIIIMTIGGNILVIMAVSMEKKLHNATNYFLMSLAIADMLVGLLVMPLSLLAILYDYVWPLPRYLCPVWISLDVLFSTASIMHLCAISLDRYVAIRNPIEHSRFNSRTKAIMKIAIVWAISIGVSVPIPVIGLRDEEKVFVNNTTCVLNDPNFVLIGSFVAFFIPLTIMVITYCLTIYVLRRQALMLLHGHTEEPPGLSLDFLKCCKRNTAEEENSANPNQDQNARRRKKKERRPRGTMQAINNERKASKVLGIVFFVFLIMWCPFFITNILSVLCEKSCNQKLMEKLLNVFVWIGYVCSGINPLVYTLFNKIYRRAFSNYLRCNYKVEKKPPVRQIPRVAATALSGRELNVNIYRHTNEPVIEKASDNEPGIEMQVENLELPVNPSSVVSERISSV

[3] = molecular target: T3, 3-hydroxy-3-methylglutaryl-coenzyme A reductase (Homo sapiens, UniProt P04035); set-up: species or system Escherichia coli;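 further: enzyme inhibition assay of HMG-CoA reductase using radiolabeled [14C]HMG-CoA as substrate; in other assays of this panel Not Active means under 50% inhibition at 10 µM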
T3 sequence (P04035 whole entry): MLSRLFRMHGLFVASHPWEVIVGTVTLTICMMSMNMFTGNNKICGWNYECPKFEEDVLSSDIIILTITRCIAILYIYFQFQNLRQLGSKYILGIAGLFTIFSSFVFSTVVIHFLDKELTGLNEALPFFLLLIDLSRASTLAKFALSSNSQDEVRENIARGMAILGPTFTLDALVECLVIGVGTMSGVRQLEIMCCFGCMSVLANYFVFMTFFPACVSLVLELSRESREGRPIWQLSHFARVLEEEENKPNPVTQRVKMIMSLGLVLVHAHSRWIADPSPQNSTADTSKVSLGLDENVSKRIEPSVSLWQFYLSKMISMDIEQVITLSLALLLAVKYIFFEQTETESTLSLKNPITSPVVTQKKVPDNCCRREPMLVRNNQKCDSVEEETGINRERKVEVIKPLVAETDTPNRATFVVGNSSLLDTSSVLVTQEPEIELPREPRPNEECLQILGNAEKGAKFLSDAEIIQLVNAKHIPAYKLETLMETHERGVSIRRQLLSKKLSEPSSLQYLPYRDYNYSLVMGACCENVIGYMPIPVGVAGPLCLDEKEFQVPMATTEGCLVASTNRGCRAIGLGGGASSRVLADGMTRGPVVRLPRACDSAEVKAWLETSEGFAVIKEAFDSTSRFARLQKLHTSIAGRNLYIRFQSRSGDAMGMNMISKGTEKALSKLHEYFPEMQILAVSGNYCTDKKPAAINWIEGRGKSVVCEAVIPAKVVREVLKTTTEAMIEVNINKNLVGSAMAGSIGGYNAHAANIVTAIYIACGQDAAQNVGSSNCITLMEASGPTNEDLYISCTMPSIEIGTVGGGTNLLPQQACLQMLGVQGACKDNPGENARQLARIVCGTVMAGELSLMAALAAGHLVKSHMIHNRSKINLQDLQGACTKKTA

[4] = molecular target: Mitogen-activated protein kinase 14 (Homo sapiens, UniProt Q16539); set-up: species or system Escherichia coli;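 further: inhibition of p38alpha enzyme activity in a biochemical kinase assay, with myelin basic protein serving as substrate; in other assays of this panel Not Active means under 50% inhibition at 10 µM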
[5] = molecular target: 5-hydroxytryptamine receptor 1B (Rattus norvegicus, UniProt P28564); assay type: cell membranes, Wistar, Cerebral cortex, Membrane; further: in other assays of this panel Not Active means under 50% inhibition at 10 µM
5-hydroxytryptamine receptor 1B, sequence (P28564 whole entry): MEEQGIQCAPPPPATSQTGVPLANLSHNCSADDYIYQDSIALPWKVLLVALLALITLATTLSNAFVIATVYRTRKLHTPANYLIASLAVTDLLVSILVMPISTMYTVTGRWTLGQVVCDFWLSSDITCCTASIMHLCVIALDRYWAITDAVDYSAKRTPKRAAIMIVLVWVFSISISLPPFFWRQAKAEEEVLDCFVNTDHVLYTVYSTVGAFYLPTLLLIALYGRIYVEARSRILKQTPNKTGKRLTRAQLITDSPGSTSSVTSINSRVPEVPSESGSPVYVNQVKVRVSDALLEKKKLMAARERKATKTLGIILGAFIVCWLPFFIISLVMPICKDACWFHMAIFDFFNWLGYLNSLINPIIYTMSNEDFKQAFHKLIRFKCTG

Mitogen-activated protein kinase 14, sequence (Q16539 whole entry): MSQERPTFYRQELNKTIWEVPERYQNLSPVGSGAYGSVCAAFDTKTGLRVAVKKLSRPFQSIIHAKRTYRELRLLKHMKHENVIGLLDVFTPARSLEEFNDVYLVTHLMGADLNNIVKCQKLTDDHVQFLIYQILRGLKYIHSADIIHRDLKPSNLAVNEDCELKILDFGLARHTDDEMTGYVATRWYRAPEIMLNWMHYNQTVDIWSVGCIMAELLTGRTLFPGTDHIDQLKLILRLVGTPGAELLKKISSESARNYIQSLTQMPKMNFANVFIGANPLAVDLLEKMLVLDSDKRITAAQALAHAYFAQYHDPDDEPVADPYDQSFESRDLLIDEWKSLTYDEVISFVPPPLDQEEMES

| Compound | IC50 [1] | IC50 ([2]; cho-k1) | IC50 [3] | IC50 ([4]; read-out: IC50) | IC50 [5] | IC50 [4] | IC50 ([2]; read-out: IC50) | Ki ([2]; read-out: Ki) | Ki [1] | Ki ([2]; cho-k1) | Ki [3] | Ki [4] | Ki [5] |
| --- | --- | --- | --- | --- | --- | --- | --- | --- | --- | --- | --- | --- | --- |
| CC(C)(Oc1ccc(C2CCCc3ccccc32)cc1)C(=O)O (stereo unspecified) [NAFENOPIN] | Not Active | Not Active | Not Active | 3740 nM | Not Active |  |  |  |  |  |  |  |  |
| COc1ccc2cc([C@H](C)C(=O)O)ccc2c1 [NAPROXEN] | Not Active | Not Active | Not Active |  | Not Active | Not Active |  |  |  |  |  |  |  |
| CC(C)[C@H]1CC[C@H](C(=O)N[C@H](Cc2ccccc2)C(=O)O)CC1 [NATEGLINIDE] | Not Active | Not Active | Not Active |  | Not Active | Not Active |  |  |  |  |  |  |  |
| CCN[C@@H]1C[C@H](N)[C@@H](O[C@H]2OC(CN)=CC[C@H]2N)[C@H](O)[C@H]1O[C@H]1OC[C@](C)(O)[C@H](NC)[C@H]1O [NETILMICIN] | Not Active | Not Active | Not Active |  | Not Active | Not Active |  |  |  |  |  |  |  |
| COC(=O)C1=C(C)NC(C)=C(C(=O)OCC(C)C)C1c1ccccc1[N+](=O)[O-] (stereo unspecified) [NISOLDIPINE] | Not Active | Not Active | Not Active |  | Not Active | Not Active |  |  |  |  |  |  |  |
| CCOC(=O)C1=C(C)NC(C)=C(C(=O)OC)C1c1cccc([N+](=O)[O-])c1 (stereo unspecified) [NITRENDIPINE] | Not Active | Not Active | Not Active |  | Not Active | Not Active |  |  |  |  |  |  |  |
| C#C[C@]1(OC(C)=O)CC[C@H]2[C@@H]3CCC4=CC(=O)CC[C@@H]4[C@H]3CC[C@@]21C [NORETHINDRONE ACETATE] | Not Active | Not Active | Not Active |  | Not Active | Not Active |  |  |  |  |  |  |  |
| COc1ccc2[nH]c([S+]([O-])Cc3ncc(C)c(OC)c3C)nc2c1 (stereo unspecified) [OMEPRAZOLE] | Not Active | Not Active | Not Active |  | Not Active | Not Active |  |  |  |  |  |  |  |
| Cc1nccn1CC1CCc2c(c3ccccc3n2C)C1=O (stereo unspecified) [ONDANSETRON] | Not Active | Not Active | Not Active |  | Not Active | Not Active |  |  |  |  |  |  |  |
| CCn1cc(C(=O)O)c(=O)c2cc(F)c(N3CCN(C)CC3)cc21 [PEFLOXACIN] | Not Active | Not Active | Not Active |  | Not Active | Not Active |  |  |  |  |  |  |  |
| CCCCOc1ccc(OCCCN2CCOCC2)cc1 [PRAMOXINE] | Not Active | Not Active | Not Active |  | Not Active | Not Active |  |  |  |  |  |  |  |
| O=C(C1CCCCC1)N1CC(=O)N2CCc3ccccc3C2C1 (stereo unspecified) [PRAZIQUANTEL] | Not Active | Not Active | Not Active |  | Not Active | Not Active |  |  |  |  |  |  |  |
| CCN(CC)CCOC(=O)c1ccc(N)cc1 [PROCAINE] | Not Active | Not Active | Not Active |  | Not Active | Not Active |  |  |  |  |  |  |  |
| CCCN(CCC)C(=O)C(CCC(=O)O)NC(=O)c1ccccc1 (stereo unspecified) [PROGLUMIDE] | Not Active | Not Active | Not Active |  | Not Active | Not Active |  |  |  |  |  |  |  |
| NC(=O)c1cnccn1 [PYRAZINAMIDE] | Not Active | Not Active | Not Active |  | Not Active | Not Active |  |  |  |  |  |  |  |
| OC(CCN1CCCCC1)(c1ccccc1)C1CCCCC1 (stereo unspecified) [TRIHEXYPHENIDYL] | Not Active | Not Active | Not Active |  | Not Active | Not Active |  |  |  |  |  |  |  |
| Cc1cc2cc3c(C)cc(=O)oc3c(C)c2o1 [TRIOXSALEN] | Not Active |  | Not Active |  | Not Active | Not Active | 2360 nM | 1230 nM |  |  |  |  |  |
| CCCC(CCC)C(=O)O [VALPROIC ACID] | Not Active | Not Active | Not Active |  | Not Active | Not Active |  |  |  |  |  |  |  |
| CCC1=C[C@@H]2CN(C1)Cc1c([nH]c3ccccc13)[C@@](C(=O)OC)(c1cc3c(cc1OC)N(C)[C@H]1[C@@](O)(C(=O)OC)[C@H](OC(C)=O)[C@]4(CC)C=CCN5CC[C@]31[C@@H]54)C2 [VINORELBINE] | Not Active | Not Active | Not Active |  | Not Active | Not Active |  |  |  |  |  |  |  |
| CADMIUM DICHLORIDE | Not Active | Not Active | Not Active |  | Not Active | Not Active |  |  | Not Active | Not Active | Not Active | Not Active | Not Active |
